Laboratory results published in ChEMBL document CHEMBL1201862, “PubChem BioAssay data set” (2004).
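How tested: cells in 96-well plates exposed to compound for 48 hours at five concentrations. Abbreviation: GI50, concentration required for 50% inhibition of growth.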 Active and inactive are the calls of the source. No stated cut-off is given here; in the data, active = GI50 up to about 1.1 µM and inactive = higher. Where a SMILES comes first, the peptide text is derived from it. The star is where a group is joined. Boc = CC(C)(C)OC(=O)*; Bn = c1ccc(C*)cc1

Tests used:
Test in all cases: NCI-60 cell line screen, 48 h
[1] = test system: ACHN
[2] = test system: BT-549
[3] = test system: CAKI-1
[4] = test system: COLO 205
[5] = test system: HOP-62
[6] = test system: HOP-92
[7] = test system: Hs-578T
[8] = test system: K562
[9] = test system: NCI-H226
[10] = test system: RPMI-8226
[11] = test system: SF-268
[12] = test system: SF-295
[13] = test system: SF-539
[14] = test system: SK-MEL-28
[15] = test system: SN12C
[16] = test system: SW-620
[17] = test system: T47D
[18] = test system: UACC-62
[19] = test system: HCC 2998

SMILES	GI50 [1]	GI50 [2]	GI50 [3]	GI50 [4]	GI50 [5]	GI50 [6]	GI50 [7]	GI50 [8]	GI50 [9]	GI50 [10]	GI50 [11]	GI50 [12]	GI50 [13]	GI50 [14]	GI50 [15]	GI50 [16]	GI50 [17]	GI50 [18]	GI50 [19]
COC(=O)C(CC(C)C)NC(=O)CNC(=O)C(Cc1ccc(OCc2ccccc2)cc1)NC(=O)C(COCc1ccccc1)NC(=O)OC(C)(C)C (stereo not given) (Boc-S(Bn)Y(Bn)GL-OMe; configuration not given here)	> 100 µM (inactive)	> 100 µM (inactive)	> 100 µM (inactive)	> 100 µM (inactive)	> 100 µM (inactive)	> 100 µM (inactive)	> 100 µM (inactive)	3.49 µM (inactive)	> 100 µM (inactive)	9.51 µM (inactive)	> 100 µM (inactive)	> 100 µM (inactive)	> 100 µM (inactive)	> 100 µM (inactive)	> 100 µM (inactive)	> 100 µM (inactive)	> 100 µM (inactive)	> 100 µM (inactive)	
O=C1CCSCCC(=O)Nc2ccccc2N1	> 100 µM (inactive)	> 100 µM (inactive)	> 100 µM (inactive)	> 100 µM (inactive)	> 100 µM (inactive)	> 100 µM (inactive)	88.3 µM (inactive)	> 100 µM (inactive)	> 100 µM (inactive)	> 100 µM (inactive)	> 100 µM (inactive)	> 100 µM (inactive)	> 100 µM (inactive)	> 100 µM (inactive)	> 100 µM (inactive)	> 100 µM (inactive)	> 100 µM (inactive)	> 100 µM (inactive)	
O=C1Cc2c([nH]c3c(Br)cccc23)-c2ccccc2N1	> 100 µM (inactive)	> 100 µM (inactive)		27.8 µM (inactive)	37.1 µM (inactive)		63.5 µM (inactive)	18.2 µM (inactive)	> 100 µM (inactive)	32.5 µM (inactive)	77.1 µM (inactive)	> 100 µM (inactive)	49.5 µM (inactive)		57.9 µM (inactive)	38.1 µM (inactive)	> 100 µM (inactive)	48.8 µM (inactive)	44.9 µM (inactive)
CCCCCc1c2nc(c(CCCCC)c3ccc([nH]3)c(CCCCC)c3nc(c(CCCCC)c4ccc1[nH]4)C=C3)C=C2	> 100 µM (inactive)	> 100 µM (inactive)	> 100 µM (inactive)	> 100 µM (inactive)	> 100 µM (inactive)	> 100 µM (inactive)	> 100 µM (inactive)	> 100 µM (inactive)		> 100 µM (inactive)	> 100 µM (inactive)	> 100 µM (inactive)	> 100 µM (inactive)	> 100 µM (inactive)	> 100 µM (inactive)	> 100 µM (inactive)	> 100 µM (inactive)	> 100 µM (inactive)	> 100 µM (inactive)
NC(=O)c1nnc2ccc(F)cc2c1N	88.9 µM (inactive)	68.4 µM (inactive)	> 100 µM (inactive)	> 100 µM (inactive)	> 100 µM (inactive)		> 100 µM (inactive)	> 100 µM (inactive)	7.57 µM (inactive)	> 100 µM (inactive)	> 100 µM (inactive)	> 100 µM (inactive)	> 100 µM (inactive)		> 100 µM (inactive)	> 100 µM (inactive)	> 100 µM (inactive)	> 100 µM (inactive)	> 100 µM (inactive)
O=C(O)c1nc2cc(C(F)(F)F)ccc2nc1Nc1ccc(F)cc1	12.3 µM (inactive)	12.6 µM (inactive)	25.2 µM (inactive)	15.9 µM (inactive)		13.5 µM (inactive)	19.6 µM (inactive)	13.5 µM (inactive)	27 µM (inactive)	4.17 µM (inactive)	22.3 µM (inactive)	13.4 µM (inactive)	17.5 µM (inactive)	25.6 µM (inactive)		17.3 µM (inactive)	20.2 µM (inactive)	12.6 µM (inactive)	
O=c1[nH]/c(=C/c2ccc(OCc3ccccc3)cn2)c(=O)[nH]/c1=C/c1ccccc1	0.296 µM (active)	0.787 µM (active)	0.194 µM (active)	1.06 µM (active)	0.239 µM (active)	14.3 µM (inactive)	0.185 µM (active)	0.141 µM (active)		0.123 µM (active)	0.206 µM (active)	0.107 µM (active)	0.12 µM (active)	> 100 µM (inactive)	0.113 µM (active)	0.158 µM (active)	> 24.7 µM (inactive)	0.191 µM (active)	0.175 µM (active)
CC1=C[C@H](C[C@]2(C)c3c(c4c(C)cccc4oc3=O)O[C@@H]2C)OC1=O	> 100 µM (inactive)	23.4 µM (inactive)	> 100 µM (inactive)	49.9 µM (inactive)	> 100 µM (inactive)		63.1 µM (inactive)	28 µM (inactive)	> 100 µM (inactive)	0.0778 µM (active)	24.4 µM (inactive)	> 100 µM (inactive)	> 100 µM (inactive)	> 10 µM (inactive)	54.8 µM (inactive)	21.7 µM (inactive)	50.8 µM (inactive)	73.1 µM (inactive)	> 100 µM (inactive)
CCc1ccc(Nc2cc(=O)[nH]c(SCc3ccccc3)n2)cc1	50.7 µM (inactive)	> 100 µM (inactive)	> 100 µM (inactive)	> 100 µM (inactive)	32.5 µM (inactive)	31.2 µM (inactive)	> 100 µM (inactive)	> 100 µM (inactive)	> 100 µM (inactive)	> 100 µM (inactive)	73.1 µM (inactive)	46.2 µM (inactive)	52 µM (inactive)		> 100 µM (inactive)	> 100 µM (inactive)	> 100 µM (inactive)	48.8 µM (inactive)	
S=C1CC(c2ccc(Cl)cc2)Sc2ccccc2N1 (stereo not given)	71.8 µM (inactive)	21.1 µM (inactive)	41.4 µM (inactive)	71.9 µM (inactive)	16.4 µM (inactive)		11.9 µM (inactive)	> 10 µM (inactive)	50.5 µM (inactive)	24.3 µM (inactive)	24.7 µM (inactive)	> 100 µM (inactive)		25.2 µM (inactive)	78.5 µM (inactive)		40.4 µM (inactive)	31.6 µM (inactive)	
Cc1ncc([N+](=O)[O-])n1CCNC(=O)CCCCn1ccnc1[N+](=O)[O-]	> 100 µM (inactive)	> 100 µM (inactive)	> 100 µM (inactive)	36.3 µM (inactive)	> 100 µM (inactive)		> 100 µM (inactive)	> 100 µM (inactive)	> 100 µM (inactive)		> 100 µM (inactive)	> 100 µM (inactive)	> 100 µM (inactive)		> 100 µM (inactive)	> 100 µM (inactive)	> 100 µM (inactive)	> 100 µM (inactive)	> 100 µM (inactive)
C(/c1ccco1)=c1/nc(-c2ccccc2)n2c1nc1ccccc12	21.9 µM (inactive)	15.8 µM (inactive)	5.51 µM (inactive)	98.9 µM (inactive)	2.05 µM (inactive)	38.1 µM (inactive)	49.1 µM (inactive)	20.9 µM (inactive)	9.48 µM (inactive)	11.2 µM (inactive)	31.4 µM (inactive)	12.9 µM (inactive)	24.3 µM (inactive)		37.4 µM (inactive)	21.7 µM (inactive)	1.08 µM (active)	63.1 µM (inactive)	
OCCOCn1cc(Cn2ncc3c(SCc4ccccc4)ncnc32)nn1	99.3 µM (inactive)	26.9 µM (inactive)	48.4 µM (inactive)	31.3 µM (inactive)	48.1 µM (inactive)	99.8 µM (inactive)	39.8 µM (inactive)	20.4 µM (inactive)	62.8 µM (inactive)		75.5 µM (inactive)	45.1 µM (inactive)	39 µM (inactive)	> 100 µM (inactive)	64.9 µM (inactive)	26.7 µM (inactive)	27.5 µM (inactive)	37.1 µM (inactive)	51.1 µM (inactive)
C[N+](C)([O-])CCCNc1ccnc2cccc([N+](=O)[O-])c12	33.1 µM (inactive)	41.9 µM (inactive)	44.1 µM (inactive)	20.7 µM (inactive)	83 µM (inactive)		21.1 µM (inactive)	38.5 µM (inactive)	47.1 µM (inactive)	21.5 µM (inactive)	27 µM (inactive)	92.7 µM (inactive)	22 µM (inactive)	72.6 µM (inactive)	47.1 µM (inactive)	31.1 µM (inactive)	40 µM (inactive)	31.3 µM (inactive)	27.3 µM (inactive)
CC12CCC(C1)C(C)(C)C2OC(=O)c1ccccc1N (stereo not given)	17.5 µM (inactive)	19.1 µM (inactive)	15.2 µM (inactive)	15.4 µM (inactive)	16.9 µM (inactive)	11.8 µM (inactive)	15.6 µM (inactive)	14.9 µM (inactive)		2.9 µM (inactive)	16.8 µM (inactive)	17.3 µM (inactive)	18.6 µM (inactive)	16.7 µM (inactive)	17.6 µM (inactive)	15.5 µM (inactive)	14.9 µM (inactive)	15.5 µM (inactive)	13.3 µM (inactive)
CC1(C)OCC(C2OC(C)(C)OC2[C@H]2O[C@@]3(O)[C@H]4[C@H](C=CC[C@@H]42)[C@@H](OCc2ccccc2)[C@H](OCc2ccccc2)[C@H]3OCc2ccccc2)O1 (stereo not given in full)	> 100 µM (inactive)	72.3 µM (inactive)	79.1 µM (inactive)	> 100 µM (inactive)	> 100 µM (inactive)	44.2 µM (inactive)	> 100 µM (inactive)	23.9 µM (inactive)	59.3 µM (inactive)		70 µM (inactive)	> 100 µM (inactive)	27.2 µM (inactive)	> 100 µM (inactive)	41.2 µM (inactive)	27.8 µM (inactive)	34.2 µM (inactive)	19.3 µM (inactive)	
